From US10039844B2, “Imaging tumor glycolysis by non-invasive measurement of pyruvate kinase M2” (The Board of Trustees of the Leland Stanford Junior …, priority 2014, dated 2018)
One block for each molecule: values may come before it.

Assays:
[1] = test system: PKM2 in orthotopic GBM39 PDX tumors; assay: PET imaging of orthotopic GBM39 PDX tumors at baseline and after TEPP-46 blocking; format: in vivo, mouse
Procedure: (§1) In vivo Tumor Models: For subcutaneous tumor models, U87 tumor cells (5×10^6 cells; 100 μL PBS) were injected subcutaneously on the back of female BALB/c nude mice (aged 6-8 weeks; Charles River Laboratories) and grown to approximately 150 mm^3. Tumor dimensions were measured periodically using a caliper (by the same experienced researcher), with tumor volumes calculated by the equation: volume=(π/6)×a×b×c, where a, b, and c represent three orthogonal axes of the tumor. For orthotopic brain tumor models, 2×10^5 U87 cells were implanted 0.5 mm anterior and 2 mm to the right of the bregma in the brains of 6-8 week-old nude mice, held in place using a stereotactic unit. The cells, suspended in 4 μL PBS, were injected at a depth of 3 mm over 5 min with an AS blunt-ended Hamilton syringe, which was subsequently held in place for a further 5 min. Animals were anaesthetized with an i.p. injection of 150 mg/kg ketamine, 15 mg/kg xylazine. Mice were subsequently imaged by MRI and PET 32-35 days post intracranial injection and GBM39 tumor-bearing mice were imaged between 44-50 days after implantation.
(§2) PET imaging scans were carried out on a docked Siemens Inveon PET/CT scanner (matrix size, 128×128×159; CT attenuation-corrected; non-scatter corrected), following a bolus i.v. injection of approximately 18.5 MBq of [^11C]DASA-23 into tumor-bearing mice. Dynamic scans were acquired in list mode format over 60 min. The acquired data were then sorted into 0.5-mm sinogram bins and 19 time frames for image reconstruction (4×15 s, 4×60 s and 11×300 s), which was done by iterative reconstruction using the following parameters: 3D ordered-subsets expectation maximization (3D-OSEM) followed by fast maximum a posteriori (fastMAP); MAP OSEM interations, 2; MAP subsets, 16; MAP iterations, 18.
(§3) The count densities were averaged for all volumes of interest at each time point to obtain a time versus radioactivity curve (TAC). Tumor and tissue TACs were normalized to injected dose, measured by a CRC-15 PET dose calibrator (Capintec, Inc.), and expressed as percentage injected dose per milliliter of tissue (% ID/mL). The area under the TAC, calculated as the integral of % ID/mL from 0 to 60 min, and the normalized uptake of radiotracer at 60 min (% ID/mL60) were also used for comparisons. Siemens Inveon Research Workplace software (v.4.0) was used for visualization of radiotracer uptake in the tumor, to define the three-dimensional (3D) volumes of interest (VOI) and for 3D-visualization to create volume rendering technique (VRT) images.

PKM2 [2] = target: T1, PKM2 (Homo sapiens, UniProt P14618); assay: Radiotracer uptake after PKM2 siRNA knockdown in HeLa cells; format: cell-based; set-up: endogenous in cells; host or cells: HeLa
Procedure: PKM2 siRNA: Time course PKM2 knockdown in HeLa cells was assessed over 72 h post-transfection. Cells were seeded in 6-well plates in antibiotic-free DMEM at 1.5×10^6 cells/well 24 h prior to siRNA transfection with DharmaFECT1 (Thermo Scientific), according to the manufacturer's instruction. Specific siRNA targeting only PKM2 were custom made by Thermo Scientific using the following sequences: […] (sense) (SEQ ID NO: 1), […] (antisense) (SEQ ID NO: 2). Scrambled siRNA (siCtrl; Cell Signaling Technology) was used as a control. siRNA were added at a final concentration of 25 nM. [^11C]DASA-23 uptake (0.925 MBq/mL) was measured after 30 min in cells transfected with siCtrl and siPKM2 at 24 h, 48 h and 72 h post transfection, and processed as described in Example 4, above. Untreated cells were used as a further control, measured 24 h post addition of fresh DMEM and 96 h post seeding.
Western Blotting: Monoclonal rabbit antibody to PKM1 and PKM2 (1:1000 dilution, Cell Signaling Technology) were used in a standard western blotting protocol. A rabbit anti-actin antibody (Sigma-Aldrich Co. Ltd; 1:2000) was used as a loading control. Blots were scanned and signal quantification was performed using ImageJ (National Institutes of Health).
Target sequence in this assay (P14618 2-531 limits assumed): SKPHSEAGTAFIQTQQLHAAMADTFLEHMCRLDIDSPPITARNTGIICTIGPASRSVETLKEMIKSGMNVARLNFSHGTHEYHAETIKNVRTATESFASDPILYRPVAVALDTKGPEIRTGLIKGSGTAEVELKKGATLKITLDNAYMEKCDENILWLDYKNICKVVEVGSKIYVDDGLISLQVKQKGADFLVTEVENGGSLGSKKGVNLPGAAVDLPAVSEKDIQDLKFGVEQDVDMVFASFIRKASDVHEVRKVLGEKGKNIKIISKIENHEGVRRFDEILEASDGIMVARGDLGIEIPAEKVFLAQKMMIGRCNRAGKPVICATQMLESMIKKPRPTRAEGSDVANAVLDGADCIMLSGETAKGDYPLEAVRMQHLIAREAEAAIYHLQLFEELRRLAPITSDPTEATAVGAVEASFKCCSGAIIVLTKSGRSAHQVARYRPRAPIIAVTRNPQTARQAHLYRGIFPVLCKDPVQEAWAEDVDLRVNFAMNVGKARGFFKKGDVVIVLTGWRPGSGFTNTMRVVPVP

U87 human glioma cells = assay: Cell uptake and efflux of radiotracer in U87 cells; format: cell-based
Procedure: (§4) Cell Uptake and Efflux Studies: U87 and HeLa cells (2×10^5) were plated into 6-well plates overnight before [^11C]DASA-23 uptake analysis. On the day of the experiment, fresh, pre-warmed DMEM containing 0.925 MBq of [^11C]DASA-23 was added to individual wells (1 mL/well, 9.25±4.63 pmol).
(§5) Cells were incubated with [^11C]DASA-23 at 37° C. and 5% CO2 over a 60 min time course. At the respective time points, plates were placed on ice, washed 3 times with ice-cold phosphate-buffered saline (PBS), and lysed in radioimmunoprecipitation assay buffer (Thermo Fisher Scientific Inc.; 500 μL). 300 μL cell lysates were transferred to counting tubes and decay-corrected radioactivity was determined on a y counter (Cobra II Auto-Gamma counter; Packard Biosciences Co.). The remaining lysate was frozen and used following radioactive decay for protein determination using a bicinchoninic acid (BCA) 96-well plate assay (Thermo Fisher Scientific Inc.) and for immunoblotting. In addition, 10 μL standards from the 0.925 MBq/mL solution added to cells were counted to quantitate percentage radiotracer uptake. For efflux studies, cells were incubated with radiotracer for 60 min, washed 3 times with room temperature (RT) Hank's Buffered Salt Solution (HBSS) before subsequent incubation at 37° C. in fresh, radiotracer-free, DMEM. At allotted times, samples were processed.

[3] = Ex vivo mouse plasma stability; format: in vitro ADME; conditions: after 60 min, 37° C.
Procedure: Plasma Stability: [^11C]DASA-23 stability in mouse plasma was assessed ex vivo according to previously described methodology (James et al., (2012) J. Med. Chem. 55: 8272-8282, incorporated herein by reference in its entirety.
Samples were incubated for 10 min, 30 min, and 60 min and compared to a standard from the respective injected probe.

[4] = test system: orthotopic U87 human gliomas; assay: PET imaging of orthotopic U87 tumors in mice; format: in vivo, mouse; conditions: 30 min after injection
Procedure: as §1, with “Animals were anaesthetized with an i.p. injection of 150 mg/kg ketamine, 15 mg/kg xylazine. Mice were subsequently imaged by MRI and PET 32-35 days post intracranial injection and GBM39 tumor-bearing mice were imaged between 44-50 days after implantation.” left out
as §3, with “Siemens Inveon Research Workplace software (v.4.0) was used for visualization of radiotracer uptake in the tumor, to define the three-dimensional (3D) volumes of interest (VOI) and for 3D-visualization to create volume rendering technique (VRT) images.” left out

PKM2 [5] = target: T1, PKM2; conditions: versus PKM1, PKR and PKL; cited from earlier work
Target sequence in this assay (P14618 whole entry, species assumed): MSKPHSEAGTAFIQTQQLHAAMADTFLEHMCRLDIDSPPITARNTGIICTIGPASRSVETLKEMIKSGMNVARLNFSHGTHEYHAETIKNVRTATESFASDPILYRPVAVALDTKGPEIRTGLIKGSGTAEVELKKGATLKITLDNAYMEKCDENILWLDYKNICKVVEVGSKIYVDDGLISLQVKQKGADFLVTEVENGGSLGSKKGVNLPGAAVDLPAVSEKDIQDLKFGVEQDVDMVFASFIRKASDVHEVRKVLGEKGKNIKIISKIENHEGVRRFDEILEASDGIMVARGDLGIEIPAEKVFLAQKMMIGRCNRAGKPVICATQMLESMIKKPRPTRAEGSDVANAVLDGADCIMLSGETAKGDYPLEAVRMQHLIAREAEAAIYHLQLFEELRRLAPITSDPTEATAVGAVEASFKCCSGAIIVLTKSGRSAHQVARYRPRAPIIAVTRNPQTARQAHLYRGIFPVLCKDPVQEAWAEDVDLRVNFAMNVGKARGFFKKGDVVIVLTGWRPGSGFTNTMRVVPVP

HeLa cells = assay: Cell uptake and efflux of radiotracer in HeLa cells; format: cell-based, human
Procedure: as §4, §5

[6] = test system: subcutaneous U87 human glioma xenografts; assay: PET/CT and ex vivo biodistribution in mice bearing subcutaneous U87 xenografts; set-up: species or system mouse
Procedure: as §1, §2, §3
Ex vivo Biodistribution: After the PET imaging studies, 60 min post radiotracer administration, mice were sacrificed by exsanguination via cardiac puncture and tissues harvested. Tissue radioactivity for all organs was subsequently determined on a gamma counter (decay-corrected; Cobra II Auto-Gamma counter, Packard Biosciences Co, Pangbourne, UK). Ten-microliter standards from the stock activity were also counted for data normalization. Data were expressed as percent injected dose per gram of tissue (% ID/g).

[7] = 30 min post removal of exogenous radiotracer

Compound: Cn1c2cc([S+](C)[O-])sc2c2cnn(Cc3cccc(N)c3)c(=O)c21 (centres unmarked) [TEPP-46, 6-((3-Aminophenyl)methyl)-4-methyl-2-methylsulfinylthieno[3,4]pyrrolo[1,3-d]pyridazin-5-one, reference compound]
- decrease of tumor-associated [^11C]DASA-23 retention ([1]; TEPP-46 50 mg/kg i.p., 1 hour before radiotracer): 42%
- effect on [^11C]DASA-23 tumor signal ([1]; one hour after TEPP-46 injection): complete ablation of tumor signal to background levels

- reduction in uptake in siPKM2 cells versus control siRNA (PKM2 [2]; 24 h post transfection): 16.5%
- uptake in siPKM2 cells as % of siCtrl cells (PKM2 [2]; 72 h post transfection): 44.5%
- parent remaining in plasma [3]: > 96%
- tumor-associated retention at baseline ([1]; GBM39 tumor, 30 min after radiotracer injection): 1.61±0.25 % ID/g
- tumor-associated retention after TEPP-46 ([1]; GBM39 tumor, 30 min after radiotracer injection, 1 hour after TEPP-46 50 mg/kg i.p.): 0.93±0.10 % ID/g
- uptake in control, contralateral healthy brain ([1]; GBM39 tumor-bearing mice): 0.79±0.18 % ID/g
- radioactivity in the contralateral background tissue [4]: 0.78±0.18 % ID/g
- radioactivity in the tumor ([4]; orthotopic U87 tumor): 1.68±0.47 % ID/g
- uptake ratio of U87 tumor to blood ([6]; 60 min post injection): 1.1
- uptake ratio of U87 tumor to brain ([6]; 60 min post injection): 2.1
- uptake ratio of U87 tumor to muscle ([6]; 60 min post injection): 1.6
- time of peak brain uptake ([6]; dynamic PET, normal brain, after injection): 30 s
- time to reach background levels in brain ([6]; dynamic PET, post injection): ≤ 10 min
- time of peak tumor uptake ([6]; dynamic PET, subcutaneous U87 tumor): 10 min
- accumulation in the brain ([6]; ex vivo biodistribution): did not accumulate in the brain
- U87 tumor uptake ([6]; ex vivo biodistribution, 60 min post injection): 1.78±0.23 % of the injected dose (ID)/g
Compound: [11CH3]Oc1ccc(S(=O)(=O)N2CCN(S(=O)(=O)c3c(F)cccc3F)CC2)cc1 [[^11C]DASA-23, 1-((2,6-difluorophenyl)sulfon-yl)-4-((4-(methoxy-^11C)phenyl)sulfonyl)piperazine]
- initial intracellular radioactivity retained (U87 human glioma cells; [7]): about 40%
- cellular uptake (U87 human glioma cells; by 30 min): 19.6±2.0 % radioactivity/mg protein
- selectivity of activation versus other pyruvate kinase isozymes (PKM2 [5]): selective activation of PKM2
- initial intracellular radioactivity retained (HeLa cells; [7]): about 40%
- cellular uptake (HeLa cells; by 30 min): 14.9±2.0 %radioactivity/mg protein
